Here are results for three compounds from patent US10071989B2, “Substituted cinnamamide derivative, preparation method and use thereof” (TASLY PHARMACEUTICAL GROUP CO., LTD., priority 2011, dated 2018).

Each structure is given as a SMILES string. Entries after “also recorded” stand apart in the source; their conditions may differ. Read-outs that look alike come from different tables or passages of the source.

The conditions of experiment [1]: Chinese patent application 201010169679.9; cited from earlier work.
Experiment [2] concerns C57BL/6 mice. Description: Number of autonomic activity of mice (YLS-1A autonomic activity recorder). Format: in vivo. Particulars: for Number of Autonomic activity (time): 10 mg/kg intragastric once daily, counted 30 min after administration at 6th day; for Effect on autonomic activity of mice (in words): 10 mg/kg intragastric, one week, compared with the solvent control group. The procedure: 110 mice were randomly selected to observe the number of their autonomic activity. The mice was placed into the YLS-1A multi-functional mice autonomic activity recorder, and after 1 min of adaption, the mice's activity was counted within a time period from the end of 1st min to 4th min. 96 mice with the number of autonomic activity between 70˜140 were screened out, divided randomly into 8 groups, and intragastrically administrated with the drug compounds at a dose listed in Table 1, one time daily for 7 days consecutively. The solvent control group was administrated with 2% Tween-80 aqueous solution in the same volume. All mice were placed into the autonomic activity recorder 30 min after administration at 6th day. After 1 min of adaption, the mice's activity was counted within a time period from the end of 1st min to 4th min.
(§1) 130 mice were randomly selected to observe the number of their autonomic activity. The method was the same with that of Experiment 1. 108 mice with the number of autonomic activity between 70˜140 were screened out, divided randomly into 9 groups, and intragastrically administrated with the drug compounds at a dose listed in Table 2, one time daily for 7 days consecutively. The solvent control group was administrated with 2% Tween-80 aqueous solution in the same volume. 30 min after administration at 6th day, the number of the autonomic activity of each mouse was observed. 30 min after administration at 7th day, the immobility time in tail suspension test was observed. The method was the same with that in Experiment 1.

In experiment [3] the test system is C57BL/6 mice. Description: Depression model test of anti-blepharoptosis caused by reserpine (akinesia, blepharoptosis, shell temperature). Particulars: for Degree of eye-closure: score 0-4 one hour after reserpine; for responders at 10 mg/kg: Mus musculus, po, 1 h, one hour after reserpine, 7.5 cm circle, 15-second observation, read-out: “out-of-circle” ratio. Format: in vivo. The procedure:
120 male C57BL/6 mice were randomly selected to observe the number of their autonomic activity. The mice was placed into the YLS-1A multi-functional mice autonomic activity recorder, and after 1 min of adaption, the activity of the mice was counted within a time period from the end of 1st min to 4th min. 96 mice with the number of autonomic activity between 70˜140 were screened out, divided randomly into 8 groups, and intragastrically administrated with the drug compounds at a dose listed in Table 3, one time daily for 7 days consecutively. The solvent control group was administrated with 2% Tween-80 aqueous solution in the same volume. Except the normal control group, 30 min after the last administration, each group was injected intraperitoneally with reserpine at a dose of 4 mg/kg. Next, akinesia, blepharoptosis and shell temperature were observed.
I Akinesia: one hour after intraperitoneal injection of reserpine, the mice were placed at the center of a circle with a diameter of 7.5 cm for a 15-second observation to calculate the “out-of-circle” ratio.
II Blepharoptosis: one hour after intraperitoneal injection of reserpine, the eye closure of mice was observed and scored by the following standard: eyelids open, 0; eyelids ¼ closed, 1; eyelids 2/4 closed, 2; eyelids ¾ closed, 3; eyelids closed completely, 4.
III Shell temperature: two hours after intraperitoneal injection of reserpine, the shell temperature of the abdomen of the mice was measured.
120 C57BL/6 mice were randomly selected to observe the number of their autonomic activity. The method was the same with that of Experiment 1. 100 mice with the number of autonomic activity between 70˜140 were screened out, divided randomly into 10 groups, and intragastrically administrated with the drug compounds at a dose listed in Table 4, one time daily for 7 days consecutively. The mice in the normal group and the solvent control group were administrated with 2% Tween-80 aqueous solution in the same volume. Except the normal control group, 30 min after the last administration, each group was injected intraperitoneally with reserpine at a dose of 4 mg/kg. Next, akinesia, blepharoptosis and shell temperature were observed. Observation method was the same with that of Experiment 1.

The test system of experiment [4] is C57BL/6 mice. The experiment is described as follows: Forced swimming experiment in mice. Format: in vivo. To be noted: for Immobility time in the forced swimming test in mice(s): 10 mg/kg intragastric once daily for 7 days, 30 min after last administration, end of 2nd min to 6th min; for Effect on immobility time in the forced swimming test (in words): within the dosage range (5-10 mg/kg), compared with the solvent control group. The procedure: After 1˜2 days of adaptive feed, 80 male C57BL/6 mice, aged 6˜8 weeks and weighing 18˜22 g, were placed into the YLS-1A multi-functional mice autonomic activity recorder. After 1 min of adaption, the activity of the mice was counted within a time period from the end of 1st min to 4th min. 60 mice with the number of autonomic activity between 70˜140 were screened out, divided randomly into 6 groups, and intragastrically administrated with the drug compounds at a dose listed in Table 5, one time daily for 7 days consecutively. The solvent control group was administrated with 2% Tween-80 aqueous solution in the same volume. After the administration at 6th day, the mice were placed into a cylindrical aquarium with a water depth of 10 cm and 25° C. to force the mice to swim. After 15 min, the mice were taken out, dried and returned to the cage. 24 hours later, 30 min after the last intragastrical administration, the mice were placed into a glass bottle with a diameter of 10 cm, a height of 30 cm and a water depth of 10 cm, and the temperature of the water in the bottle was at 25° C. The mice were separated with an opaque partition, so as not to influence each other. After 2 min of adaption, an accumulated immobility time from the end of 2nd min to 6th min was recorded.

The test system of the next experiment is mice. Description: Anti-depression effect in the tested models (overall conclusion). Format: in vivo. To be noted: in the tested model at the tested dose. The text has this:
Based on the aforesaid experiments, the following conclusion can be drawn: • 1.

The test system of experiment [5] is C57BL/6 mice. Description: "Acquired despair" depression model of tail suspension test in mice. Format: in vivo. To be noted: 10 mg/kg intragastric for 7 days; compared with the solvent control group. The procedure: 30 min after administration at 7th day, the mice was fixed on a sustainer with a rubberized cloth at 1 cm close to the end of the tail of mice, making the mice hanged upside down. The head of the mice was about 30 cm above the table and its sight was separated from the neighboring mouse with a plate. Usually, the mice might manage to struggle in hopes of overcoming the abnormal body position. […] The accumulated immobility time within 6 min of each mouse was observed, which was regarded as “despair time”.
as §1

[6] abbreviates: 10 mg/kg intragastric 7 days, compared with the solvent control group.
The mark [7] stands for this setting: Experiment 2, 10 mg/kg intragastric 7 days, reserpine 4 mg/kg i.p., abdomen, two hours after reserpine, ±SD.
Where [8] appears, read: Experiment 2, 10 mg/kg intragastric 7 days, reserpine 4 mg/kg i.p., ±SD.
Where [9] appears, read: Experiment 2, 10 mg/kg intragastric 7 days, reserpine 4 mg/kg i.p.
The mark [10] stands for this setting: 10 mg/kg, compared with the solvent control group.

In the case of `COc1cc(/C=C/C(=O)NCC(C)C)cc2c1OCO2` [Compound I-1, N-isobutyl-5′-methoxy-3′,4′-methylenedioxy cinnamamide], the “Anti-depressive effect in animal experiments (in words)” value in experiment [1] was “significant anti-depressive effect”. Further, the “Number of Autonomic activity (time)” value in the experiment on C57BL/6 mice [2] (Experiment 1, end of 1st min to 4th min) was found to be 113.92 ± 14.24 time. Besides, the “Blepharoptosis, “out-of-circle” ratio and shell temperature after reserpine (effect in words)” value in the experiment with C57BL/6 mice [3] (setting [6]) is listed as “improved significantly; also recorded: remarkably improve”. Also, in the experiment with C57BL/6 mice [3] (Experiment 1, 10 mg/kg intragastric 7 days, reserpine 4 mg/kg i.p., abdomen, two hours after reserpine, ±SD), the “Change in the shell temperature (ΔT ° C.)” value stood at 2.05 ± 0.24 °C. The Degree of eye-closure is 2.67 ± 0.89 in the experiment on C57BL/6 mice [3] (Experiment 1, 10 mg/kg intragastric 7 days, reserpine 4 mg/kg i.p., ±SD) and 2.91 ± 0.75 with C57BL/6 mice [3] (setting [8]). Moreover, in the experiment on C57BL/6 mice [3] (setting [7]), the “Change in the shell temperature (T ° C.)” value turned out to be 27.80 ± 0.61 °C. Further, the responders at 10 mg/kg in the experiment with C57BL/6 mice [3] (Experiment 1, 10 mg/kg intragastric 7 days, reserpine 4 mg/kg i.p.) amounted to 17%; with C57BL/6 mice [3] (setting [9]), 10%.
`O=C(/C=C/c1cc2c(c(C(F)(F)F)c1)OCO2)N1CCCCC1` [Compound I-10]: the “Effect on autonomic activity of mice (in words)” value in the experiment with C57BL/6 mice [2] is “had no effect”. Besides, the “Number of Autonomic activity (time)” value in the experiment on C57BL/6 mice [2] (Experiment 2) came to 95.30 ± 15.06 time. For the same compound, in the experiment on C57BL/6 mice [3] (setting [6]), the “Blepharoptosis, “out-of-circle” ratio and shell temperature after reserpine (effect in words)” value is “antagonizing the decrease of shell temperature, akinesia and improving the degree of eye closure”. Besides, in the experiment with C57BL/6 mice [3] (10 mg/kg, compared with I-1), the “Degree of eye closure / blepharoptosis after reserpine compared with I-1 (in words)” value is on record as “increased improvement”. Moreover, in the experiment on C57BL/6 mice [3] (setting [10]), the “Blepharoptosis after reserpine (effect in words)” value is on record as “improve blepharoptosis of the mice significantly”; the “Shell temperature and “out-of-circle” ratio after reserpine (effect in words)” value is on record as “to a certain degree but without statistically significant difference”. In addition, the “Change in the shell temperature (T ° C.)” value in the experiment with C57BL/6 mice [3] (setting [7]) is 27.15 ± 1.20 °C. The compound further had a Degree of eye-closure in the experiment with C57BL/6 mice [3] (setting [8]) of 1.80 ± 1.32. Moreover, the responders at 10 mg/kg with C57BL/6 mice [3] (setting [9]) was 30%. In addition, in the experiment with C57BL/6 mice [4], the “Immobility time in the forced swimming test in mice(s)” value came out at 83.07 ± 31.03 s and the “Effect on immobility time in the forced swimming test (in words)” value is “shortening the immobility time; also recorded: shorten the immobility time”. In the experiment with mice, the “Anti-depression effect compared with the pharmacologic effect of I-1 (in words)” value is recorded as “increased to some degree”. Moreover, the “Effect on immobility time in tail suspension test (in words)” value with C57BL/6 mice [5] is recorded as “reduce the immobility time of the mice in tail suspension test significantly; also recorded: significantly shorten the immobility time”.
Regarding `O=C(c1cc2c(c(C(F)(F)F)c1)OCO2)N1CCCCC1` [Compound I-13, 1-(5-trifluoromethyl-3,4-methylenedioxybenzoyl)-piperidine], the “Effect on autonomic activity of mice (in words)” value in the experiment on C57BL/6 mice [2] is reported as “had no effect”. In the experiment with C57BL/6 mice [2] (Experiment 2), the “Number of Autonomic activity (time)” value was found to be 87.40 ± 22.39 time. Also, in the experiment on C57BL/6 mice [3] (setting [6]), the “Blepharoptosis, “out-of-circle” ratio and shell temperature after reserpine (effect in words)” value was “remarkably improve; also recorded: antagonizing the decrease of shell temperature, akinesia and improving the degree of eye closure”. Moreover, the “Blepharoptosis, shell temperature and “out-of-circle” ratio compared with Compound I-1 (in words)” value with C57BL/6 mice [3] (10 mg/kg, compared with I-1, p<0.05, p<0.01) is on record as “significantly improved effect”. Besides, the “Improvement in eye closure and shell temperature compared with fluoxetine (in words)” value in the experiment on C57BL/6 mice [3] (10 mg/kg, compared with fluoxetine, p<0.05) is “better effect to a certain degree”. In addition, the “Improving akinesia, blepharoptosis and shell temperature: ranking among the tested compounds (in words)” value in the experiment on C57BL/6 mice [3] (10 mg/kg, within the experiment) was “better effects”. The “Change in the shell temperature (T ° C.)” value in the experiment on C57BL/6 mice [3] (setting [7]) stood at 30.20 ± 0.95 °C. The Degree of eye-closure in the experiment with C57BL/6 mice [3] (setting [8]) stood at 0.90 ± 0.88. In the experiment with C57BL/6 mice [3] (setting [9]), the responders at 10 mg/kg was 70%. In addition, in the experiment on C57BL/6 mice [4], the “Immobility time in the forced swimming test in mice(s)” value amounted to 76.00 ± 32.32 s and the “Effect on immobility time in the forced swimming test (in words)” value is reported as “shortening the immobility time; also recorded: shorten the immobility time”. In addition, the “Anti-depression effect compared with the pharmacologic effect of I-1 (in words)” value in the experiment with mice is on record as “increased to some degree”. The “Effect on immobility time in tail suspension test (in words)” value in the experiment on C57BL/6 mice [5] is “reduce the immobility time of the mice in tail suspension test significantly; also recorded: significantly shorten the immobility time”.
